Measurements published in patent US10864196B2, “Modulators of the integrated stress pathway” (Calico Life Sciences LLC, priority 2016, dated 2020).

test system: HEK293T cells carrying the ATF4 luciferase reporter; experiment: ATF4-Luc assay (in vitro model of VWMD); type: cell-based; conditions: Homo sapiens, HEK-293T, 1 μg/mL tunicamycin, 7 hours, One Glo luminescence
Protocol: In order to test exemplary compounds of the invention in a cellular context, a stable VWMD cell line was first constructed. The ATF4 reporter was prepared by fusing the human full-length ATF4 5′-UTR (NCBI Accession No. BC022088.2) in front of the firefly luciferase (FLuc) coding sequence lacking the initiator methionine as described in Sidrauski et al (eLife 2013). The construct was used to produce recombinant retroviruses using standard methods and the resulting viral supernatant was used to transduce HEK293T cells, which were then subsequently selected with puromycin to generate a stable cell line.
HEK293T cells carrying the ATF4 luciferase reporter were plated on polylysine coated 384-well plates (Greiner Bio-one) at 30,000 cells per well. Cells were treated the next day with 1 μg/mL tunicamycin and 200 nM of a compound of Formula (I) for 7 hours. Luminescence was measured using One Glo (Promega) as specified by the manufacturer. Cells were maintained in DMEM with L-glutamine supplemented with 10% heat-inactivated FBS (Gibco) and Antibiotic-Antimycotic solution (Gibco).
Table 2 below summarizes the EC50 data obtained using the ATF4-Luc assay for exemplary compounds of the invention.

Row | Compound | EC50 [nM]
1 | O=C(COc1ccc(Cl)cc1)NC12CC(c3nnc(COc4ccc(Cl)cc4)o3)(C1)C2 [Compound 100, 2-(4-chlorophenoxy)-N-(3-{5-[(4-chlorophenoxy)methyl]-1,3,4-oxadiazol-2-yl}bicyclo[1.1.1]pentan-1-yl)acetamide] | 50 to 250
2 | O=C(COc1ccc(Cl)cc1)NC12CC(c3nc(COc4ccc(Cl)cc4)no3)(C1)C2 [Compound 101, 2-(4-chlorophenoxy)-N-(3-{3-[(4-chlorophenoxy)methyl]-1,2,4-oxadiazol-5-yl}bicyclo[1.1.1]pentan-1-yl)acetamide] | < 50
3 | Cc1cccc(OCC(=O)NC23CC(c4nc(COc5ccc(Cl)cc5)no4)(C2)C3)c1 [Compound 102, N-(3-{3-[(4-chlorophenoxy)methyl]-1,2,4-oxadiazol-5-yl}bicyclo[1.1.1]pentan-1-yl)-2-(3-methylphenoxy)acetamide] | 1000 to 2000
4 | Cc1ccc(OCC(=O)NC23CC(c4nc(COc5ccc(Cl)cc5)no4)(C2)C3)cc1 [Compound 103, N-(3-{3-[(4-chlorophenoxy)methyl]-1,2,4-oxadiazol-5-yl}bicyclo[1.1.1]pentan-1-yl)-2-(4-methylphenoxy)acetamide] | 50 to 250
5 | Cc1cc(OCC(=O)NC23CC(c4nc(COc5ccc(Cl)cc5)no4)(C2)C3)ccc1Cl [Compound 104, 2-(4-chloro-3-methylphenoxy)-N-(3-{3-[(4-chlorophenoxy)methyl]-1,2,4-oxadiazol-5-yl}bicyclo[1.1.1]pentan-1-yl)acetamide] | 250 to 1000
6 | O=C(COc1ccc(Cl)c(Cl)c1)NC12CC(c3nc(COc4ccc(Cl)cc4)no3)(C1)C2 [Compound 105, N-(3-{3-[(4-chlorophenoxy)methyl]-1,2,4-oxadiazol-5-yl}bicyclo[1.1.1]pentan-1-yl)-2-(3,4-dichlorophenoxy)acetamide] | < 50
7 | O=C(COc1cccc(Cl)c1)NC12CC(c3nc(COc4ccc(Cl)cc4)no3)(C1)C2 [Compound 106, 2-(3-chlorophenoxy)-N-(3-{3-[(4-chlorophenoxy)methyl]-1,2,4-oxadiazol-5-yl}bicyclo[1.1.1]pentan-1-yl)acetamide] | 250 to 1000
8 | O=C(COc1cccc(F)c1)NC12CC(c3nc(COc4ccc(Cl)cc4)no3)(C1)C2 [Compound 107, N-(3-{3-[(4-chlorophenoxy)methyl]-1,2,4-oxadiazol-5-yl}bicyclo[1.1.1]pentan-1-yl)-2-(3-fluorophenoxy)acetamide] | 250 to 1000
9 | O=C(COc1ccc(F)cc1)NC12CC(c3nc(COc4ccc(Cl)cc4)no3)(C1)C2 [Compound 108, N-(3-{3-[(4-chlorophenoxy)methyl]-1,2,4-oxadiazol-5-yl}bicyclo[1.1.1]pentan-1-yl)-2-(4-fluorophenoxy)acetamide] | 250 to 1000
10 | O=C(COc1ccc(Cl)c(Cl)c1)NC12CC(c3nnc(COc4ccc(Cl)cc4)o3)(C1)C2 [Compound 109, N-(3-{5-[(4-chlorophenoxy)methyl]-1,3,4-oxadiazol-2-yl}bicyclo[1.1.1]pentan-1-yl)-2-(3,4-dichlorophenoxy)acetamide] | < 50
11 | O=C(COc1ccc(Cl)c(F)c1)NC12CC(c3nc(COc4ccc(Cl)cc4)no3)(C1)C2 [Compound 110, 2-(4-chloro-3-fluorophenoxy)-N-(3-{3-[(4-chlorophenoxy)methyl]-1,2,4-oxadiazol-5-yl}bicyclo[1.1.1]pentan-1-yl)acetamide] | 50 to 250
12 | O=C(COc1ccc(Cl)cc1F)NC12CC(c3nc(COc4ccc(Cl)cc4)no3)(C1)C2 [Compound 111, 2-(4-chloro-2-fluorophenoxy)-N-(3-{3-[(4-chlorophenoxy)methyl]-1,2,4-oxadiazol-5-yl}bicyclo[1.1.1]pentan-1-yl)acetamide] | 50 to 250
13 | Cc1cc(COCC(=O)NC23CC(c4nc(COc5ccc(Cl)cc5)no4)(C2)C3)no1 [Compound 112, N-(3-{3-[(4-chlorophenoxy)methyl]-1,2,4-oxadiazol-5-yl}bicyclo[1.1.1]pentan-1-yl)-2-[(5-methyl-1,2-oxazol-3-yl)methoxy]acetamide] | > 2000
14 | O=C(COc1ccc(Cl)c(F)c1)NC12CC(c3noc(COc4ccc(Cl)cc4)n3)(C1)C2 [Compound 113, 2-(4-chloro-3-fluorophenoxy)-N-(3-{5-[(4-chlorophenoxy)methyl]-1,2,4-oxadiazol-3-yl}bicyclo[1.1.1]pentan-1-yl)acetamide] | < 50
15 | O=C(COc1ccc(C(F)(F)F)nc1)NC12CC(c3nc(COc4ccc(Cl)cc4)no3)(C1)C2 [Compound 114, N-(3-{3-[(4-chlorophenoxy)methyl]-1,2,4-oxadiazol-5-yl}bicyclo[1.1.1]pentan-1-yl)-2-{[6-(trifluoromethyl)pyridin-3-yl]oxy}acetamide] | 250 to 1000
16 | O=C(COc1ccc(Cl)c(F)c1)NC12CC(c3nnc(COc4ccc(Cl)c(F)c4)o3)(C1)C2 [Compound 115, 2-(4-chloro-3-fluorophenoxy)-N-(3-{5-[(4-chloro-3-fluorophenoxy)methyl]-1,3,4-oxadiazol-2-yl}bicyclo[1.1.1]pentan-1-yl)acetamide] | < 50
17 | O=C(COc1ccc(Cl)c(F)c1)NC12CC(c3nnc(Oc4ccc(C(F)(F)F)nc4)o3)(C1)C2 [Compound 116, 2-(4-chloro-3-fluorophenoxy)-N-[3-(5-{[6-(trifluoromethyl)pyridin-3-yl]oxy}-1,3,4-oxadiazol-2-yl)bicyclo[1.1.1]pentan-1-yl]acetamide] | 50 to 250
18 | O=C(COc1ccc(Cl)c(F)c1)NC12CC(c3nnc(Oc4cncc(C(F)(F)F)c4)o3)(C1)C2 [Compound 117, 2-(4-chloro-3-fluorophenoxy)-N-[3-(5-{[5-(trifluoromethyl)pyridin-3-yl]oxy}-1,3,4-oxadiazol-2-yl)bicyclo[1.1.1]pentan-1-yl]acetamide] | 50 to 250
19 | Cc1cc(Oc2nnc(C34CC(NC(=O)COc5ccc(Cl)c(F)c5)(C3)C4)o2)cnc1C#N [Compound 118, 2-(4-chloro-3-fluorophenoxy)-N-(3-{5-[(6-cyano-5-methylpyridin-3-yl)oxy]-1,3,4-oxadiazol-2-yl}bicyclo[1.1.1]pentan-1-yl)acetamide] | 250 to 1000
20 | N#Cc1ccc(Oc2nnc(C34CC(NC(=O)COc5ccc(Cl)c(F)c5)(C3)C4)o2)cn1 [Compound 119, 2-(4-chloro-3-fluorophenoxy)-N-(3-{5-[(6-cyanopyridin-3-yl)oxy]-1,3,4-oxadiazol-2-yl}bicyclo[1.1.1]pentan-1-yl)acetamide] | 250 to 1000
21 | COc1ccc(Oc2nnc(C34CC(NC(=O)COc5ccc(Cl)c(F)c5)(C3)C4)o2)cn1 [Compound 120, 2-(4-chloro-3-fluorophenoxy)-N-(3-{5-[(6-methoxypyridin-3-yl)oxy]-1,3,4-oxadiazol-2-yl}bicyclo[1.1.1]pentan-1-yl)acetamide] | 50 to 250
22 | O=C(COc1ccc(Cl)c(F)c1)NC12CC(c3nnc(Oc4ccc(C5CC5)nc4)o3)(C1)C2 [Compound 121, 2-(4-chloro-3-fluorophenoxy)-N-(3-{5-[(6-cyclopropylpyridin-3-yl)oxy]-1,3,4-oxadiazol-2-yl}bicyclo[1.1.1]pentan-1-yl)acetamide] | 50 to 250
23 | O=C(COc1ccc(Cl)c(F)c1)NC12CC(c3nnc(COc4cncc(C(F)(F)F)c4)o3)(C1)C2 [Compound 122, 2-(4-chloro-3-fluorophenoxy)-N-{3-[5-({[5-(trifluoromethyl)pyridin-3-yl]oxy}methyl)-1,3,4-oxadiazol-2-yl]bicyclo[1.1.1]pentan-1-yl}acetamide] | 50 to 250
24 | Cc1ccc(Oc2nnc(C34CC(NC(=O)COc5ccc(Cl)c(F)c5)(C3)C4)o2)cc1 [Compound 123, 2-(4-chloro-3-fluorophenoxy)-N-{3-[5-(4-methylphenoxy)-1,3,4-oxadiazol-2-yl]bicyclo[1.1.1]pentan-1-yl}acetamide] | 50 to 250
25 | COc1ccccc1Oc1nnc(C23CC(NC(=O)COc4ccc(Cl)c(F)c4)(C2)C3)o1 [Compound 124, 2-(4-chloro-3-fluorophenoxy)-N-{3-[5-(2-methoxyphenoxy)-1,3,4-oxadiazol-2-yl]bicyclo[1.1.1]pentan-1-yl}acetamide] | > 2000
26 | COc1ccc(Oc2nnc(C34CC(NC(=O)COc5ccc(Cl)c(F)c5)(C3)C4)o2)cc1 [Compound 125, 2-(4-chloro-3-fluorophenoxy)-N-{3-[5-(4-methoxyphenoxy)-1,3,4-oxadiazol-2-yl]bicyclo[1.1.1]pentan-1-yl}acetamide] | 250 to 1000
27 | O=C(COc1ccc(Cl)c(F)c1)NC12CC(c3nnc(Oc4ccc(F)cc4)o3)(C1)C2 [Compound 126, 2-(4-chloro-3-fluorophenoxy)-N-{3-[5-(4-fluorophenoxy)-1,3,4-oxadiazol-2-yl]bicyclo[1.1.1]pentan-1-yl}acetamide] | < 50
28 | O=C(COc1ccc(Cl)c(F)c1)NC12CC(c3nnc(Oc4ccccc4Cl)o3)(C1)C2 [Compound 127, 2-(4-chloro-3-fluorophenoxy)-N-{3-[5-(2-chlorophenoxy)-1,3,4-oxadiazol-2-yl]bicyclo[1.1.1]pentan-1-yl}acetamide] | 250 to 1000
29 | O=C(COc1ccc(Cl)c(F)c1)NC12CC(c3nnc(Oc4ccc(Cl)cc4)o3)(C1)C2 [Compound 128, 2-(4-chloro-3-fluorophenoxy)-N-{3-[5-(4-chlorophenoxy)-1,3,4-oxadiazol-2-yl]bicyclo[1.1.1]pentan-1-yl}acetamide] | < 50
30 | N#Cc1cccc(Oc2nnc(C34CC(NC(=O)COc5ccc(Cl)c(F)c5)(C3)C4)o2)c1 [Compound 129, 2-(4-chloro-3-fluorophenoxy)-N-{3-[5-(3-cyanophenoxy)-1,3,4-oxadiazol-2-yl]bicyclo[1.1.1]pentan-1-yl}acetamide] | 50 to 250
